Source: PubChem BioAssay AID328 (DTP/NCI, 2004)
Inconclusive results and toxic doses are left out.

Tested on: BDF1 mice, P388 leukemia ip, median survival T/C
Test: NCI In Vivo Anticancer Drug Screen. Data for tumor model P388 Leukemia (intraperitoneal) in B6D2F1 (BDF1) mice
Conditions: endpoint: median survival time, higher = longer survival
In short: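 Mice carrying the transplantable tumour receive compound or vehicle. Survival is followed in each arm, and the treated measure is divided by the vehicle measure.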

[1] = dose: 100.0 mg/kg/injection, schedule: Q01DX009 (ip), vehicle: saline
[2] = dose: 50.0 mg/kg/injection, schedule: Q01DX009 (ip), vehicle: saline

SMILES: CN(C)CC/C=C1\c2ccccc2Sc2ccc(Cl)cc21
- T/C (dose: 3.75 mg/kg/injection, schedule: Q01DX001 (ip), vehicle: Klucel (hydroxypropylcellulose) (HPC)): 112 % of control
- T/C (dose: 7.5 mg/kg/injection, schedule: Q01DX001 (ip), vehicle: Klucel (hydroxypropylcellulose) (HPC)): 110 % of control
- T/C (dose: 15.0 mg/kg/injection, schedule: Q01DX001 (ip), vehicle: Klucel (hydroxypropylcellulose) (HPC)): 112 % of control
- T/C (dose: 30.0 mg/kg/injection, schedule: Q01DX001 (ip), vehicle: Klucel (hydroxypropylcellulose) (HPC)): 103 % of control
- T/C (dose: 60.0 mg/kg/injection, schedule: Q01DX001 (ip), vehicle: Klucel (hydroxypropylcellulose) (HPC)): 114 % of control
- T/C (dose: 120.0 mg/kg/injection, schedule: Q01DX001 (ip), vehicle: Klucel (hydroxypropylcellulose) (HPC)): 118 % of control

SMILES: O=C(O)CCC1(c2ccccc2)CCCC1
- T/C (dose: 25.0 mg/kg/injection, schedule: Q01DX009 (ip), vehicle: water): 91 % of control
- T/C (dose: 50.0 mg/kg/injection, schedule: Q01DX009 (ip), vehicle: water): 88 % of control
- T/C (dose: 100.0 mg/kg/injection, schedule: Q01DX009 (ip), vehicle: water): 103 % of control
- T/C (dose: 200.0 mg/kg/injection, schedule: Q01DX009 (ip), vehicle: water): 97 % of control
- T/C (dose: 300.0 mg/kg/injection, schedule: Q01DX009 (ip), vehicle: water): 106 % of control

SMILES: Nc1n[nH]c(N)n1
- T/C [1]: 113 % of control
- T/C (dose: 200.0 mg/kg/injection, schedule: Q01DX009 (ip), vehicle: saline): 113 % of control

SMILES: CCN(CC)CCCCCNc1cc(OC)cc2c(C)ccnc12
- T/C [2]: 115 % of control
- T/C [1]: 92 % of control

SMILES: Nc1ncnc2c1ccn2C1OC2COP(=O)(O)OC2C1O (configuration not stated)
- T/C (dose: 0.63 mg/kg/injection, schedule: Q01DX010 (ip), vehicle: saline): 100 % of control
- T/C (dose: 1.25 mg/kg/injection, schedule: Q01DX010 (ip), vehicle: saline): 110 % of control
- T/C (dose: 5.0 mg/kg/injection, schedule: Q01DX010 (ip), vehicle: saline): 150 % of control

SMILES: Nc1ccc(NS(=O)(=O)c2ccccc2)nc1
- T/C (dose: 100.0 mg/kg/injection, schedule: Q01DX009 (ip), vehicle: Klucel (hydroxypropylcellulose) (HPC)): 100 % of control
- T/C (dose: 100.0 mg/kg/injection, schedule: Q04DX003 (ip), vehicle: Klucel (hydroxypropylcellulose) (HPC)): 100 % of control
- T/C (dose: 200.0 mg/kg/injection, schedule: Q01DX009 (ip), vehicle: Klucel (hydroxypropylcellulose) (HPC)): 100 % of control
- T/C (dose: 200.0 mg/kg/injection, schedule: Q04DX003 (ip), vehicle: Klucel (hydroxypropylcellulose) (HPC)): 100 % of control
- T/C (dose: 400.0 mg/kg/injection, schedule: Q01DX009 (ip), vehicle: Klucel (hydroxypropylcellulose) (HPC)): 95 % of control
- T/C (dose: 400.0 mg/kg/injection, schedule: Q04DX003 (ip), vehicle: Klucel (hydroxypropylcellulose) (HPC)): 100 % of control

SMILES: Cc1cc2c(c3oc(C4(C)OC4C4OC4C)cc(=O)c13)C(=O)c1c(O)c(C3CC(C)(N(C)C)C(O)C(C)O3)cc(C3CC(N(C)C)C(O)C(C)O3)c1C2=O (configuration not stated)
- T/C (dose: 0.01 mg/kg/injection, schedule: Q01DX009 (oral), vehicle: saline): 105 % of control
- T/C (dose: 0.03 mg/kg/injection, schedule: Q01DX009 (oral), vehicle: saline): 105 % of control
- T/C (dose: 0.06 mg/kg/injection, schedule: Q01DX001 (oral), vehicle: saline): 95 % of control
- T/C (dose: 0.06 mg/kg/injection, schedule: Q01DX009 (oral), vehicle: saline): 110 % of control
- T/C (dose: 0.06 mg/kg/injection, schedule: Q01DX010 (ip), vehicle: saline): 109 % of control
- T/C (dose: 0.12 mg/kg/injection, schedule: Q01DX001 (ip), vehicle: saline): 155 % of control
- T/C (dose: 0.12 mg/kg/injection, schedule: Q01DX001 (oral), vehicle: saline): 104 % of control
- T/C (dose: 0.12 mg/kg/injection, schedule: Q01DX009 (oral), vehicle: saline): 110 % of control
- T/C (dose: 0.24 mg/kg/injection, schedule: Q01DX001 (ip), vehicle: saline): 190 % of control
- T/C (dose: 0.24 mg/kg/injection, schedule: Q01DX001 (oral), vehicle: saline): 104 % of control
- T/C (dose: 0.48 mg/kg/injection, schedule: Q01DX001 (ip), vehicle: saline): 200 % of control
- T/C (dose: 0.48 mg/kg/injection, schedule: Q01DX001 (oral), vehicle: saline): 100 % of control
- T/C (dose: 0.1 micrograms/kg/injection, schedule: Q01DX010 (ip), vehicle: carboxymethylcellulose (CMC)): 95 % of control
- T/C (dose: 0.1 micrograms/kg/injection, schedule: Q01DX010 (ip), vehicle: other): 113 % of control
- T/C (dose: 0.2 micrograms/kg/injection, schedule: Q01DX010 (ip), vehicle: carboxymethylcellulose (CMC)): 95 % of control
- T/C (dose: 0.2 micrograms/kg/injection, schedule: Q01DX010 (ip), vehicle: other): 118 % of control
- T/C (dose: 0.3 micrograms/kg/injection, schedule: Q01DX010 (ip), vehicle: saline): 100 % of control
- T/C (dose: 0.3 micrograms/kg/injection, schedule: Q01DX010 (ip), vehicle: steriod suspending solution): 95 % of control
- T/C (dose: 0.5 micrograms/kg/injection, schedule: Q01DX010 (ip), vehicle: carboxymethylcellulose (CMC)): 104 % of control
- T/C (dose: 0.5 micrograms/kg/injection, schedule: Q01DX010 (ip), vehicle: other): 109 % of control
- T/C (dose: 0.5 micrograms/kg/injection, schedule: Q01DX010 (ip), vehicle: saline): 116 % of control
- T/C (dose: 0.6 micrograms/kg/injection, schedule: Q01DX010 (ip), vehicle: saline): 95 % of control
- T/C (dose: 0.6 micrograms/kg/injection, schedule: Q01DX010 (ip), vehicle: steriod suspending solution): 120 % of control
- T/C (dose: 1.0 micrograms/kg/injection, schedule: Q01DX010 (ip), vehicle: other): 109 % of control
- T/C (dose: 1.0 micrograms/kg/injection, schedule: Q01DX010 (ip), vehicle: saline): 120 % of control
- T/C (dose: 1.3 micrograms/kg/injection, schedule: Q01DX010 (ip), vehicle: saline): 122 % of control
- T/C (dose: 2.0 micrograms/kg/injection, schedule: Q01DX010 (ip), vehicle: other): 113 % of control
- T/C (dose: 4.0 micrograms/kg/injection, schedule: Q01DX010 (ip), vehicle: carboxymethylcellulose (CMC)): 118 % of control
- T/C (dose: 4.0 micrograms/kg/injection, schedule: Q01DX010 (ip), vehicle: saline): 159 % of control
- T/C (dose: 5.0 micrograms/kg/injection, schedule: Q01DX010 (ip), vehicle: carboxymethylcellulose (CMC)): 175 % of control
- T/C (dose: 5.0 micrograms/kg/injection, schedule: Q01DX010 (ip), vehicle: steriod suspending solution): 150 % of control
- T/C (dose: 6.0 micrograms/kg/injection, schedule: Q01DX009 (ip), vehicle: saline): 155 % of control
- T/C (dose: 8.0 micrograms/kg/injection, schedule: Q01DX010 (ip), vehicle: saline): 163 % of control
- T/C (dose: 10.0 micrograms/kg/injection, schedule: Q01DX010 (ip), vehicle: carboxymethylcellulose (CMC)): 190 % of control
- T/C (dose: 10.0 micrograms/kg/injection, schedule: Q01DX010 (ip), vehicle: steriod suspending solution): 160 % of control
- T/C (dose: 12.0 micrograms/kg/injection, schedule: Q01DX009 (ip), vehicle: saline): 170 % of control
- T/C (dose: 16.0 micrograms/kg/injection, schedule: Q01DX010 (ip), vehicle: saline): 118 % of control
- T/C (dose: 20.0 micrograms/kg/injection, schedule: Q01DX010 (ip), vehicle: saline): 154 % of control
- T/C (dose: 20.0 micrograms/kg/injection, schedule: Q01DX010 (ip), vehicle: steriod suspending solution): 180 % of control
- T/C (dose: 30.0 micrograms/kg/injection, schedule: Q01DX010 (ip), vehicle: saline): 109 % of control
- T/C (dose: 32.0 micrograms/kg/injection, schedule: Q01DX010 (ip), vehicle: other): 177 % of control
- T/C (dose: 60.0 micrograms/kg/injection, schedule: Q01DX010 (ip), vehicle: saline): 86 % of control

SMILES: COc1ccc(C(CCl)(CCl)c2ccc(OC)c(C)c2)cc1C
- T/C (dose: 100.0 mg/kg/injection, schedule: Q01DX009 (ip), vehicle: saline with Tween-80): 104 % of control
- T/C (dose: 100.0 mg/kg/injection, schedule: Q04DX003 (ip), vehicle: saline with Tween-80): 91 % of control
- T/C (dose: 200.0 mg/kg/injection, schedule: Q04DX003 (ip), vehicle: saline with Tween-80): 87 % of control
- T/C (dose: 400.0 mg/kg/injection, schedule: Q01DX009 (ip), vehicle: saline with Tween-80): 100 % of control
- T/C (dose: 400.0 mg/kg/injection, schedule: Q04DX003 (ip), vehicle: saline with Tween-80): 100 % of control

SMILES: C#CC(C)OCC(O)CCl (configuration not stated)
- T/C (dose: 25.0 mg/kg/injection, schedule: Q01DX009 (ip), vehicle: saline): 100 % of control
- T/C [2]: 118 % of control
- T/C [1]: 109 % of control
- T/C (dose: 100.0 mg/kg/injection, schedule: Q04DX003 (ip), vehicle: saline): 108 % of control
- T/C (dose: 200.0 mg/kg/injection, schedule: Q04DX003 (ip), vehicle: saline): 104 % of control
- T/C (dose: 400.0 mg/kg/injection, schedule: Q04DX003 (ip), vehicle: saline): 108 % of control
